What was measured:
Type in all cases: biochemical
[1] = molecular target: T1, Entamoeba invadens chitinase 4 (rEiCht4) (Entamoeba invadens, UniProt A0A0A1TXF4); assay: 4-MU release by purified recombinant enzyme, specific activity
T1 construct: gene EIN_136020

[2] = molecular target: T2, Entamoeba invadens chitinase 1 (rEiCht1) (Entamoeba invadens, UniProt A0A0A1U6V8); assay: as above
T2 construct: gene EIN_404540

[3] = molecular target: T2, Entamoeba invadens chitinase 1 (rEiCht1); assay: fluorogenic 4MU-(GlcNAc)[…] hydrolysis assay with purified recombinant enzyme
[4] = molecular target: T1, Entamoeba invadens chitinase 4 (rEiCht4); assay: as above

T1 sequence (A0A0A1TXF4 entry or part of it): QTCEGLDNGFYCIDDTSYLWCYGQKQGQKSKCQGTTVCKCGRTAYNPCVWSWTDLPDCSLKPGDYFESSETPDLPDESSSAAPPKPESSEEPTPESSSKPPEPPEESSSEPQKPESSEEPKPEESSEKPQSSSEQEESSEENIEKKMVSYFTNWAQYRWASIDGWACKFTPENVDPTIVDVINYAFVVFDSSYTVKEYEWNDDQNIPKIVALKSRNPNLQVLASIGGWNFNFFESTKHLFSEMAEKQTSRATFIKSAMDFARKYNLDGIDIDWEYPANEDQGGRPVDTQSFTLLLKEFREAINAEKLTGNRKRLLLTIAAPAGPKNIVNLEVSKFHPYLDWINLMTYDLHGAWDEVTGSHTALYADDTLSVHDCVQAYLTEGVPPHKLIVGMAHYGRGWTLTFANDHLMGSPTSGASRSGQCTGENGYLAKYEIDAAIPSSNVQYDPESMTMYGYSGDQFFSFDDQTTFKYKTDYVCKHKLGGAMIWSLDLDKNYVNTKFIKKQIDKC
T2 sequence (A0A0A1U6V8 entry or part of it): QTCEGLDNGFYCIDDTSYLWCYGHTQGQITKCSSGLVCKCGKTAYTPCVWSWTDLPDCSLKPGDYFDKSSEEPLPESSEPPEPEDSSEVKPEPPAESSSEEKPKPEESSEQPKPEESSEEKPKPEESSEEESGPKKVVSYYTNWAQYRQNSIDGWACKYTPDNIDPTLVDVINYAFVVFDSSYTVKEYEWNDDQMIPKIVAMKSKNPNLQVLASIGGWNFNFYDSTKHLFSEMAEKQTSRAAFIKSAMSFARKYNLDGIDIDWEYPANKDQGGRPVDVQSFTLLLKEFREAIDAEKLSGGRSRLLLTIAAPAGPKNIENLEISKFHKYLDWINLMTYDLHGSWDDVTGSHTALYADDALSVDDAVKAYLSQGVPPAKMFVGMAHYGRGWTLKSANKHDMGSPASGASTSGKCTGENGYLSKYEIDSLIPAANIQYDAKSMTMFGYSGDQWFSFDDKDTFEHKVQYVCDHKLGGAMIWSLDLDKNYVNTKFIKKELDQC

| SMILES | 4-MU release by purified recombinant enzyme, specific activity [1] [μmol/min/mg protein] | 4-MU release by purified recombinant enzyme, specific activity [2] [μmol/min/mg protein] | IC50 [3] [nM] | IC50 [4] [nM] |
| --- | --- | --- | --- | --- |
| CC(=O)N[C@H]1[C@H](Oc2ccc3c(C)cc(=O)oc3c2)O[C@H](CO)[C@@H](O[C@@H]2O[C@H](CO)[C@@H](O[C@@H]3O[C@H](CO)[C@@H](O)[C@H](O)[C@H]3NC(C)=O)[C@H](O)[C@H]2NC(C)=O)[C@@H]1O [4-methylumbelliferyl β-D-N,N′,N′′-triacetylchitotrioside] | 6.3 ± 1.1 | 11.7 ± 5.3 |  |  |
| Cc1nn(C)c(C)c1NS(=O)(=O)c1c(Cl)cc(-c2ccnc(N3CCNCC3)c2)cc1Cl [D-B-09, 2,6-dichloro-4-[2-(1-piperazinyl)-4-pyridinyl]-N-(1,3,5-trimethyl-1H-pyrazol-4-yl)-benzenesulfonamide] |  |  | 800 ± 200 | 2500 ± 1300 |
